Laboratory results published in ChEMBL document CHEMBL1201862, “PubChem BioAssay data set” (2004).
Calls of active or inactive are those of the source.

Experiments:
Beta-lactamase [1] = molecular target: T1, Beta-lactamase (Pseudomonas aeruginosa, UniProt Q79MP6); assay: inhibition of IMP-1 beta-lactamase activity – biochemical, epi-absorbance, selectivity assay for VIM-2 inhibitor project, dose response (AID 1920)
Beta-lactamase [2] = molecular target: Beta-lactamase (Salmonella choleraesuis (strain SC-B67), UniProt Q5J463); assay: Epi-absorbance-based counterscreen for selective VIM-2 inhibitors: dose response biochemical high throughput screening assay to identify inhibitors of TEM-1 serine-beta-lactamase.
Chain of Beta-lactamase (Salmonella choleraesuis (strain SC-B67), UniProt Q5J463) (Q5J463 whole entry): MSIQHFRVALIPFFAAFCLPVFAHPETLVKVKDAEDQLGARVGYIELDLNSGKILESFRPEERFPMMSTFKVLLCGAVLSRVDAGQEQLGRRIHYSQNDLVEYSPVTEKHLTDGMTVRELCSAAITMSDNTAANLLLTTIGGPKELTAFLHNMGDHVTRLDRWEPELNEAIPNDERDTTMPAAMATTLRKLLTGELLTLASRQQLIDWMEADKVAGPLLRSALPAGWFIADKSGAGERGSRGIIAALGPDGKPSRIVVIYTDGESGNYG

Beta-lactamase [3] = molecular target: T1, Beta-lactamase; assay: […] counterscreen for selective VIM-2 inhibitors: dose response biochemical high throughput screening assay to identify inhibitors of IMP-1 metallo-beta-lactamase.
[4] = molecular target: Fructose-bisphosphate aldolase (Mycobacterium tuberculosis, UniProt P9WQA3); assay: Fluorescence-based biochemical high throughput dose response assay for inhibitors of the fructose-bisphosphate aldolase (FBA) of M. tuberculosis.; format: functional
Chain of Fructose-bisphosphate aldolase (P9WQA3 whole entry): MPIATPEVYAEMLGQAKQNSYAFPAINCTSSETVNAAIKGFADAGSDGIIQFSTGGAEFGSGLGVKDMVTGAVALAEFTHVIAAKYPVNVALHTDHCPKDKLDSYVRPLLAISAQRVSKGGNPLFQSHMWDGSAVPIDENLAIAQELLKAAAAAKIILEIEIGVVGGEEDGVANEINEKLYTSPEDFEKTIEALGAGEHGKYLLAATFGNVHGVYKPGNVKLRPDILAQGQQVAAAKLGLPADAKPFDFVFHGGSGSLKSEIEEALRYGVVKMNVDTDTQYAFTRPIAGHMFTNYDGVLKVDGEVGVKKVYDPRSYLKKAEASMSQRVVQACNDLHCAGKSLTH

[5] = general mammalian cell viability loss – inhibitor set, cherry-pick, set 2, cytotoxicity control for miR-122 modulator project, dose response (AID 720697); format: functional, cell-based
[6] = activation of miR-122 Renilla sensor silencing – cell-based, Huh7 psiCHECK-miR122, Renilla luciferase, cherry-picked, dose response (AID 651956); format: functional;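 also: huh7 hepatoma cells stably carrying a psiCHECK-2 miR-122 sensor plasmid; renilla luciferase signal reporting endogenous miR-122 activity after 48 h compound exposure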
Aminopeptidase N = molecular target: T2, Aminopeptidase N (Plasmodium falciparum FcB1/Columbia, UniProt O96935); assay: malaria alanyl aminopeptidase activity blockers – biochemical, fluorogenic H-Leu-NHMec substrate, 1536-well (AID 1445); design: species or system Plasmodium falciparum 3D7, 3D7
T2 sequence (O96935 whole entry): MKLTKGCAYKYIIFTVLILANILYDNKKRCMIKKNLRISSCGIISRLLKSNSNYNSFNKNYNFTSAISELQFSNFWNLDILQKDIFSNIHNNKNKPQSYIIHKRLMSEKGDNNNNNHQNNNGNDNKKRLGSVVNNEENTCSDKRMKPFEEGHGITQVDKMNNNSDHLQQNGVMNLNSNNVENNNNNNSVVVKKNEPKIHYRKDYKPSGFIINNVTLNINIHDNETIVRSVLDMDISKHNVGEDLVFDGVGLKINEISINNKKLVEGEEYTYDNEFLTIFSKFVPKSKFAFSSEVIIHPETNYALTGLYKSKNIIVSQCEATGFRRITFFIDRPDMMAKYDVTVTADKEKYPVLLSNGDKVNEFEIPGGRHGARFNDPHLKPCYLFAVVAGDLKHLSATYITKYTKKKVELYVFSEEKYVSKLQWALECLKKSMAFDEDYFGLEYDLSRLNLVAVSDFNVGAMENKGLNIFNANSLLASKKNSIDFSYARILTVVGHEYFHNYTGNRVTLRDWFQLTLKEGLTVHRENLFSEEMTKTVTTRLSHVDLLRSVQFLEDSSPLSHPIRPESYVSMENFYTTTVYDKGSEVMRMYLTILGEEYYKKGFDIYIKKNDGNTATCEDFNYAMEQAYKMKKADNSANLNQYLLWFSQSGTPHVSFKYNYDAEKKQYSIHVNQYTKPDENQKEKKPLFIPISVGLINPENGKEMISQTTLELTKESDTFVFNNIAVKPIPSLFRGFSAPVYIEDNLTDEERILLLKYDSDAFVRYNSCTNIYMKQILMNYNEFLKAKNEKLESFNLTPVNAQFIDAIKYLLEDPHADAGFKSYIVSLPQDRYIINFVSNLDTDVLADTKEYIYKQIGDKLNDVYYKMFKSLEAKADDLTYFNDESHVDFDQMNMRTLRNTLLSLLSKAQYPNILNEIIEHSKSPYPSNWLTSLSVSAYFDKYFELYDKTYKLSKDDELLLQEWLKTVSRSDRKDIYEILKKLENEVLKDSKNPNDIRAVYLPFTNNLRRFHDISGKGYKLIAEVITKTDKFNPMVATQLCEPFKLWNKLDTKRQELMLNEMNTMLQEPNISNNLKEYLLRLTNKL

[7] = molecular target: Tyrosine-protein phosphatase non-receptor type 11 (Homo sapiens, UniProt Q06124); assay: PTPN11 enzyme inhibitors – biochemical, selectivity assay for STEP inhibitor project, dose response (AID 602367); format: functional; conditions: read-out: IC50_Mean
Chain of Tyrosine-protein phosphatase non-receptor type 11 (Q06124 whole entry): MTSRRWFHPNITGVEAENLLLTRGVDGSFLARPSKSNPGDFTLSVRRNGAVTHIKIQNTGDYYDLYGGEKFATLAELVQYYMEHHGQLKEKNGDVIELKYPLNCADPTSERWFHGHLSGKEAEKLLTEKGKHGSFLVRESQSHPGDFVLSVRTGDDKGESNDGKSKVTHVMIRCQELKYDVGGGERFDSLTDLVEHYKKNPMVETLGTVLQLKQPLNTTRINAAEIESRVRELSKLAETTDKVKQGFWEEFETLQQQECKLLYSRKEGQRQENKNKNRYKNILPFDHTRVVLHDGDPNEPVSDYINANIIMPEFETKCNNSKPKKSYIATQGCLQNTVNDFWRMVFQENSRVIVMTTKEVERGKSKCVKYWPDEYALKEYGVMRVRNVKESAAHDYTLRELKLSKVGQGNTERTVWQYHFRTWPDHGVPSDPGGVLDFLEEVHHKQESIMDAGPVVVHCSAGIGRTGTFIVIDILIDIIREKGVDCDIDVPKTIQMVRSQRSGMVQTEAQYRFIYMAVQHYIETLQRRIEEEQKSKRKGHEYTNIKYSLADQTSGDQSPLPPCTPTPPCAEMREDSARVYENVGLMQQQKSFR

[8] = molecular target: T3, Tyrosine-protein phosphatase non-receptor type 22 (Homo sapiens, UniProt Q9Y2R2); assay: lymphoid phosphatase LYP inhibitors – biochemical, selectivity assay for STEP inhibitor project, dose response (AID 624241); format: functional
T3 sequence (Q9Y2R2 whole entry): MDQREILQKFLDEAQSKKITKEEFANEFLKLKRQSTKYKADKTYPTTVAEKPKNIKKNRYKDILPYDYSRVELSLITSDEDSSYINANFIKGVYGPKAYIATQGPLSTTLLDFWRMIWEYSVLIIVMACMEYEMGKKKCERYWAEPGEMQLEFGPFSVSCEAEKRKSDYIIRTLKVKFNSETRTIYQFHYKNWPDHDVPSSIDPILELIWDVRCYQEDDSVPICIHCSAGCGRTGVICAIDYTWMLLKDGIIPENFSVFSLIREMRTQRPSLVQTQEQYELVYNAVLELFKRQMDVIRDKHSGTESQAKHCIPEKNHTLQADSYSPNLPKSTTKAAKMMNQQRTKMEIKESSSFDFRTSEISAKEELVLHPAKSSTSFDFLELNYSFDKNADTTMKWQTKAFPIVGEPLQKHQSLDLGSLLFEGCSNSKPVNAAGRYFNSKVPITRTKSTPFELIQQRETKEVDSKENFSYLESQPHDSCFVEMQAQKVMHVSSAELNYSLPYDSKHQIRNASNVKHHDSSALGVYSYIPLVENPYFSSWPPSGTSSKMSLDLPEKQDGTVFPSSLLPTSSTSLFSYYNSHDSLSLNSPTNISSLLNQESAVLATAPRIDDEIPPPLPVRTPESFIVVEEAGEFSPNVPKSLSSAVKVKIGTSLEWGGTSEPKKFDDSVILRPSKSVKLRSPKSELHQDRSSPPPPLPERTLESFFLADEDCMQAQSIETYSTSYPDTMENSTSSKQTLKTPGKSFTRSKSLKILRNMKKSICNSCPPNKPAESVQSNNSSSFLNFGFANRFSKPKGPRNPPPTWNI

[9] = molecular target: Tyrosine-protein phosphatase non-receptor type 5 (Homo sapiens, UniProt P54829); assay: PTPN5 enzyme inhibition – biochemical, fluorescence intensity, uHTS hits, confirmation (AID 602372); format: functional; conditions: read-out: IC50_Mean
Chain of Tyrosine-protein phosphatase non-receptor type 5 (P54829 whole entry): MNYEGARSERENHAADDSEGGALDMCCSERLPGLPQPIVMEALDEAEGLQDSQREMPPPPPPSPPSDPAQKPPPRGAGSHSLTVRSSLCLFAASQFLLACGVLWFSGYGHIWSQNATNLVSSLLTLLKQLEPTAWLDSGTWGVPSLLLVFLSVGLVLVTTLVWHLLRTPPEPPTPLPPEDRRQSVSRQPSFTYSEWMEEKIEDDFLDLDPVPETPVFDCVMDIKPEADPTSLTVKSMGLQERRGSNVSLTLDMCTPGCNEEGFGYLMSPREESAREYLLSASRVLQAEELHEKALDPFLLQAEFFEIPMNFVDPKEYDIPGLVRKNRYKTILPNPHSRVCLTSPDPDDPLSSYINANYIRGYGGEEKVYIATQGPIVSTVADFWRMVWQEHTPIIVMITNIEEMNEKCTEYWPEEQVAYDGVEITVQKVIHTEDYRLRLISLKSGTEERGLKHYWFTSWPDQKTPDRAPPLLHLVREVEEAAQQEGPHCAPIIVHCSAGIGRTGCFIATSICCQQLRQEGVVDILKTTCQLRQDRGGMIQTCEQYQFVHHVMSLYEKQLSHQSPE

[10] = molecular target: Dual specificity protein phosphatase 3 (Homo sapiens, UniProt P51452); assay: VHR phosphatase inhibition, dose response, selectivity assay for STEP inhibitor project, biochemical (AID 602374); format: functional; conditions: read-out: IC50_Mean
Chain of Dual specificity protein phosphatase 3 (P51452 whole entry): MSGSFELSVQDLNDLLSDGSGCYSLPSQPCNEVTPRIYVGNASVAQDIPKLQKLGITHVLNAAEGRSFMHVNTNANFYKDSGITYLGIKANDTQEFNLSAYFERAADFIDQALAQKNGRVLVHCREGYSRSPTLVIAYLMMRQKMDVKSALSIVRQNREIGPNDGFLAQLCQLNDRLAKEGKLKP

Vero = assay: viability loss in Vero cells – cell-based, plate reader, cherry-pick samples, cytotoxicity control, dose response (AID 687020); format: functional; conditions: Chlorocebus sabaeus
[11] = toxicity toward HepG2 liver cells – cell-based, plate reader, cherry-pick, antagonist series, cytotoxicity control, dose response (AID 743416); format: functional
[12] = viability loss in CEM21 cells – cell-based, CellTiter-Glo luminescence, cherry-picked, cytotoxicity control for viral fusion inhibitor project, dose response (AID 652042); format: functional;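 also: potency for signal decrease meaning cytotoxicity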
[13] = blockade of melanocortin 4 receptor signaling – cell-based, plate reader, cherry pick, counter-screen for LGR2 antagonist project, dose response (AID 743444); format: functional;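 also: transfected HEK 293 cells stimulated with alpha-MSH peptide; potency of inhibitors of the alpha-MSH evoked signal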
[14] = off-target signal loss in HeLa-CEM21 co-culture – HeLa F-luc CTL cells, cherry-picked, counter-screen for HIV-1 Env fusion inhibitor project, dose response (AID 652040); format: functional, cell-based;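 also: potency for signal decrease marking cytotoxic or nonspecific inhibition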
[15] = HIV-1 AD8 envelope cell-cell fusion blockers – cherry-pick, dose response (AID 652062); format: functional, cell-based;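 also: luciferase signal from cell-cell fusion driven by HIV-1 clade B AD8 Env; potency is for inhibitors of fusion seen as a drop in luminescence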
[16] = blockers of HIV-1 ZM109 envelope-driven cell-cell fusion – HeLa effector, CEM target cells, luciferase, cherry-pick, dose response (AID 652058); format: functional, cell-based;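 also: luciferase signal from HIV-1 Env mediated cell-cell fusion of effector and target cells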
[17] = blockers of HIV-1 envelope-mediated cell-cell fusion – cherry-pick, dose response (AID 652057); format: functional, cell-based
[18] = HEK-293T cell viability reduction – luminescence, B-cell screen hits, cytotoxicity control for BCR NF-kB inhibitor project, dose response (AID 489021); format: functional, cell-based;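 also: HEK-293T cells carrying an NF-kB luciferase reporter; cells exposed to compound for about 14 hours before viability readout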
INS1 = assay: INS-1E survival protection against cytokine death – cell-based, luminescence, retest, dose response (AID 449756); format: functional; conditions: Rattus norvegicus;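 also: cell death triggered by IL-1 beta plus TNF-alpha plus IFN-gamma mixture; protective hits raise ATP signal compared with cytokine alone wells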
[19] = viability loss in HEK293 cells – cell-based, plate reader, cherry-picked samples, cytotoxicity control, dose response (AID 743446); format: functional
[20] = blockers of bursicon-stimulated LGR2 cAMP reporter – cell-based, HEK293, CRE-luciferase reporter, cherry pick, set 2, dose response (AID 743343); format: functional;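 also: transfected cells were stimulated with diluted bursicon conditioned medium after compound addition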
[21] = A549 cell cytotoxicity, dose response, cytotoxicity control, plate reader, cherry-pick, antagonist series (AID 743412); format: functional, cell-based
[22] = viability loss in HeLa cells – cytotoxicity control for MgcRacGAP inhibitor project, dose response (AID 624300); format: functional
[23] = molecular target: Glucose-6-phosphate 1-dehydrogenase (Homo sapiens, UniProt P11413); assay: inhibition of Homo sapiens G6PD, dose series – biochemical, fluorescence, selectivity assay for P. falciparum G6PD inhibitor project, dose response (AID 504792); format: functional
A549 = assay: viability loss in A549 cells – cell-based, plate reader, cherry-pick samples, cytotoxicity control, dose response (AID 687028); format: functional; conditions: Homo sapiens
[24] = Counterscreen for activators of the function of SWI/SNF related, matrix associated, actin dependent regulator of chromatin, subfamily a, member 2 (SMARCA2, BRM): Luminescence-based cell-based high throughput dose response assay to identify non-selective compounds using the VP16 reporter assay.; format: functional
[25] = molecular target: SWI/SNF-related matrix-associated actin-dependent regulator of chromatin subfamily A member 2 (Homo sapiens, UniProt P51531); assay: Luminescence-based cell-based high throughput dose response assay to identify activators of the function of SWI/SNF related, matrix associated, actin dependent regulator of chromatin, subfamily a, member 2 (SMARCA2, BRM).; format: functional
Chain of SWI/SNF-related matrix-associated actin-dependent regulator of chromatin subfamily A member 2 (P51531 whole entry): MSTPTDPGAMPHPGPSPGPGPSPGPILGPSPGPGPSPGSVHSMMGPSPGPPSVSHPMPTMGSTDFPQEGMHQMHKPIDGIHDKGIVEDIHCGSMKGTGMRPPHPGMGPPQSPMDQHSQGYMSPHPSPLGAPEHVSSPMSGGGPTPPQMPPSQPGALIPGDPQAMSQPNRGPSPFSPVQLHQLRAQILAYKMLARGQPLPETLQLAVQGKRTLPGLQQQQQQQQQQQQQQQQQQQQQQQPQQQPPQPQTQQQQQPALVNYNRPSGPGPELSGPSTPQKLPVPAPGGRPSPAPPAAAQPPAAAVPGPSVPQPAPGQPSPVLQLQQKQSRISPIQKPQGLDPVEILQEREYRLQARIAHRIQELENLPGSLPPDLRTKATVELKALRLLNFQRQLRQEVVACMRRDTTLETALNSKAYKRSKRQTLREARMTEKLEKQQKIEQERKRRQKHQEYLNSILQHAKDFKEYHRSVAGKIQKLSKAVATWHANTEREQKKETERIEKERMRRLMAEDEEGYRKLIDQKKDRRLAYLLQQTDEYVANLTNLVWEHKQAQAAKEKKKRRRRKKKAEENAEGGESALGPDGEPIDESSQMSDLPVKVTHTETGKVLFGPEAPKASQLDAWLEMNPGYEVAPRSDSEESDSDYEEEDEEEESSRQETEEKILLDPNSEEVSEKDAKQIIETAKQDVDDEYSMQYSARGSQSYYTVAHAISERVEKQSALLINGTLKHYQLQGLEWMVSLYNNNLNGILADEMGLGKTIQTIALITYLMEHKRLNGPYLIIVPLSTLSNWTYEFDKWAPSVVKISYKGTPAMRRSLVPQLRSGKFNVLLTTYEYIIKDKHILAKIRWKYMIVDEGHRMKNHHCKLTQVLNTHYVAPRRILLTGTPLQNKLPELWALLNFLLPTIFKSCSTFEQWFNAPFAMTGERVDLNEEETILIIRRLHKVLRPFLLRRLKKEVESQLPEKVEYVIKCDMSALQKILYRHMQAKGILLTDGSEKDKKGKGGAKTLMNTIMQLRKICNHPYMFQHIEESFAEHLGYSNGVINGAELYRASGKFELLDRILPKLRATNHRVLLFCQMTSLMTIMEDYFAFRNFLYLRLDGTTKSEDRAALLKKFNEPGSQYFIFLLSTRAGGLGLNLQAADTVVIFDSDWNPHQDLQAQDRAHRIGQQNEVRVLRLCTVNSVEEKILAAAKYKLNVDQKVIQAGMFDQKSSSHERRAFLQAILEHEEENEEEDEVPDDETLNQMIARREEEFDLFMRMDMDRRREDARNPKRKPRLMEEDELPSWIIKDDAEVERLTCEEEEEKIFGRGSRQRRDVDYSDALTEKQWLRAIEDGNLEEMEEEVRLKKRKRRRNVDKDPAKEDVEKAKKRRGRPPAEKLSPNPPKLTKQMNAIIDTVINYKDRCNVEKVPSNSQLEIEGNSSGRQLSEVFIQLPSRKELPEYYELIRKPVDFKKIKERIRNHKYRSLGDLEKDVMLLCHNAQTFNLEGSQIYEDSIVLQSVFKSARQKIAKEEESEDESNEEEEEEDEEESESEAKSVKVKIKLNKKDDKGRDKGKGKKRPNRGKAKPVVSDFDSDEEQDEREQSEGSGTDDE

Paired box protein Pax-8 = Paired box protein Pax-8 (Homo sapiens, UniProt Q06710); assay: PAX8 transcriptional activity inhibition in RMG-I – RMG-I cells, luciferase, cherry-pick, dose response (AID 687027); format: functional, cell-based;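 also: luciferase reporter driven by Pax8 target thyroperoxidase promoter measured by SteadyGlo luminescence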
Chain of Paired box protein Pax-8 (Q06710 whole entry): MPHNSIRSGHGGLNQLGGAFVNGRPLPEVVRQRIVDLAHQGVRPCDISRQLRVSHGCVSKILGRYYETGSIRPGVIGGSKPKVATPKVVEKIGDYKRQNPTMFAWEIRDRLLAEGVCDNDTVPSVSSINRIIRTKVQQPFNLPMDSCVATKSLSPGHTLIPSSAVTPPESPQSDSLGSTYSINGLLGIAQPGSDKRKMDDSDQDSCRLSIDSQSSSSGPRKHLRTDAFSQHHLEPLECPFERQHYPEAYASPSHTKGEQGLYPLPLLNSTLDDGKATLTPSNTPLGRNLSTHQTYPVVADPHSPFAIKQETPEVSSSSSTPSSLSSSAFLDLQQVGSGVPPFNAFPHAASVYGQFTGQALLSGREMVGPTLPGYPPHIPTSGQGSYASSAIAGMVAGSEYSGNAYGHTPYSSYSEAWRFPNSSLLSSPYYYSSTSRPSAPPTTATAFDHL

[26] = TNFa-induced NF-kB reporter signal decrease – HEK293 LMP1 reporter cells, dry powder, set 2, selectivity assay for EBV LMP1 NF-kB inhibitor project, dose response (AID 624369); format: functional
[27] = LMP1-induced NF-kB luciferase signal inhibition – cell-based, EBV LMP1, dry powder, set 2, dose response (AID 624361); format: functional
[28] = inhibitors of EBV LMP1 NF-kappaB signaling – cell-based, luciferase reporter, luminescence, dry powder, set 2, dose response (AID 624376); format: functional
[29] = cytotoxicity in HEK293 background cells – cell-based, dry powder, set 2, counter-screen for EBV LMP1 inhibitor project, dose response (AID 624374); format: functional
[30] = molecular target: Potassium channel subfamily K member 9 (Homo sapiens, UniProt Q9NPC2); assay: KCNK9 flux blockade, concentration-response – cell-based, FluxOR thallium flux, selectivity assay for TASK1 inhibitor project, SAR follow-up (AID 652211); format: functional;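 also: potency is for inhibitors of the channel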
Chain of Potassium channel subfamily K member 9 (Q9NPC2 whole entry): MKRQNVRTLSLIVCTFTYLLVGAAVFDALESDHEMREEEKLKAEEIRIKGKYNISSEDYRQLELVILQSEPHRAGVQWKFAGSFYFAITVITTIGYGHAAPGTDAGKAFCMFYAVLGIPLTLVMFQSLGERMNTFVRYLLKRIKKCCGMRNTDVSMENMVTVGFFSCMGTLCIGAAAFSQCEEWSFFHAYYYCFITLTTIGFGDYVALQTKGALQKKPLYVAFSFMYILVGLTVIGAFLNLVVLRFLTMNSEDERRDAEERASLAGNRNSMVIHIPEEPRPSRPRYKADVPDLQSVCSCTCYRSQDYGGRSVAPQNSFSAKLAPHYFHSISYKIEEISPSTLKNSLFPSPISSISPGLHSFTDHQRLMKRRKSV

T1 sequence (Q79MP6 whole entry): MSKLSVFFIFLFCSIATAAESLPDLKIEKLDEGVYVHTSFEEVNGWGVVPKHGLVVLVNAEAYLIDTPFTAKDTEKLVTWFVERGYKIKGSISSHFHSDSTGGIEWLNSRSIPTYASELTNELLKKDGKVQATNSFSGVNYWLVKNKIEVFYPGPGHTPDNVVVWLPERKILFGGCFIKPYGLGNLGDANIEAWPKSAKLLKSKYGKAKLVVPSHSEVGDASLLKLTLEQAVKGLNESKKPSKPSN

O=C(CSc1nnc(NC(=O)C2CC2)s1)NCc1ccccc1Cl
IC50 (Beta-lactamase [1]): > 59.6 µM (inactive)
IC50 (Beta-lactamase [2]): > 59.6 µM (inactive)
IC50 (Beta-lactamase [3]): > 59.6 µM (inactive)

CC(=O)NN1C(=O)c2ccccc2NC1c1ccccn1 (stereo not given)
IC50 [4]: 3.49 µM (active)

Cc1cc(NS(=O)(=O)c2ccc(NC(=O)C(CC(C)C)N3C(=O)c4ccccc4C3=O)cc2)nc(C)n1 (stereo not given)
AC50 [5]: 8.51 µM (active)
AC50 [6]: 49.8 µM (active)
IC50 (Aminopeptidase N): 38 µM (active)

SC1=NC2=C(CCCC2=C2SCCS2)C(c2ccccc2)N1 (stereo not given)
IC50 [7]: 5.27 µM (active)
IC50 [8]: > 100 µM (inactive)
IC50 [9]: 22.6 µM (inactive)
IC50 [10]: 1.23 µM (active)

CCCCC[C@H]1CN(CCc2ccccc2)C(=O)[C@@H]1CC(=O)NCc1ccc(OC)cc1
AC50 (Vero): 33.9 µM (active)

CC(C)CN(C(=O)COC(=O)C12CC3CC(CC(C3)C1)C2)c1c(N)n(Cc2ccccc2)c(=O)[nH]c1=O
AC50 [11]: 13.7 µM (active)
AC50 [12]: 13.1 µM (active)
AC50 [13]: 30.2 µM (active)
AC50 [14]: 17 µM (active)
AC50 [15]: 18.3 µM (active)
AC50 [16]: 11.4 µM (active)
AC50 [17]: 9.69 µM (active)
IC50 [18]: > 80 µM (inactive)
AC50 (INS1): 3.62 µM (active)
AC50 [19]: 16.6 µM (active)
AC50 [20]: 43.8 µM (active)
AC50 [21]: 8.64 µM (active)

O=[N+]([O-])c1cnc(Sc2ccncn2)c([N+](=O)[O-])c1
CC50 [22]: 34.1 µM (active)
IC50 [23]: > 80 µM (inactive)

CC1(C(=O)NCc2cccs2)Cc2c(-c3cccc(C(F)(F)F)c3)ccnc2O1 (stereo not given)
AC50 (A549): 17.6 µM (active)

CN(C)c1ncnc2c1nnn2C1OC(CO)C(O)C1O (stereo not given)
EC50 [24]: > 91.2 µM (inactive)
EC50 [25]: > 91.2 µM (inactive)
AC50 (Paired box protein Pax-8): < 0.26 µM (active)

CC(C)NC(=O)N1[C@H](CO)[C@H](c2ccc(C#CC3CCCCC3)cc2)[C@@H]1C#N
AbsAC35 [26]: 202.7 µM
AbsAC35 [27]: 53.56 µM
AbsAC35 [28]: 62.28 µM

C[C@@H]1CN([C@@H](C)CO)C(=O)c2c(c3ccccc3n2C)-c2ccccc2CO[C@H]1CN(C)C(=O)Nc1ccc(F)cc1
AbsAC35 [29]: 204.77 µM

Cc1cccc(C(=O)Nc2cccc(NC(=O)c3ccccc3Cl)c2)c1
IC50 [30]: 19.8 µM (active)
